Measurements taken from patent US9586907B2, “Isothiocyanate compounds, pharmaceutical compositions, and uses thereof” (priority 2006, dated 2017).
Converted amounts (≈) assume the structure as drawn. Where two headings read alike, the source gives them in different places.

Assays:
Shigella sp., BK 12440 = experiment: MIC, Shigella sp., BK 12440; assay type: cell-based; conditions: Gram −, 24 hours of incubation, read-out: MIC
Shigella sp., BK 12441 = experiment: MIC, Shigella sp., BK 12441; assay type: cell-based; conditions: Gram −, 24 hours of incubation, read-out: MIC
[1] = tested on: Bacillus subtilis BK11590; experiment: MIC, Bacillus subtilis BK11590; assay type: cell-based; conditions: Gram +, 24 hours of incubation, read-out: MIC
M. intracellularie = experiment: MIC, M. intracellularie; assay type: cell-based
M. avium = experiment: MIC, M. avium; assay type: cell-based; conditions: Mycobacterium avium
M. scrofulaceum = experiment: MIC, M. scrofulaceum; assay type: cell-based; conditions: Mycobacterium scrofulaceum
M. cansassi = experiment: MIC, M. cansassi; assay type: cell-based
M. fortuitum = experiment: MIC, M. fortuitum; assay type: cell-based; conditions: Mycolicibacterium fortuitum
M. tuberculosis W = experiment: MIC, M. tuberculosis W; assay type: cell-based; conditions: Mycobacterium tuberculosis, read-out: MIC
Description: (§1) Next, several of the bifunctional ITC compounds were tested for their ability to inhibit the growth of some clinical isolates of Mycobacteria, the results of which are summarized in Table 3 below.

M. tuberculosis H37Rv = experiment: MIC, M. tuberculosis H37Rv; assay type: cell-based; conditions: Mycobacterium tuberculosis, read-out: MIC
Description: as §1

M. tuberculosis CDC1551 = experiment: MIC, M. tuberculosis CDC1551; assay type: cell-based; conditions: Mycobacterium tuberculosis, read-out: MIC
Description: as §1

M. tuberculosis P = experiment: MIC, M. tuberculosis P; assay type: cell-based; conditions: Mycobacterium tuberculosis, read-out: MIC
Description: as §1

[2] = tested on: MRSA (Staphylococcus aureus) BK12060; experiment: MIC, MRSA BK12060; conditions: Staphylococcus aureus, MRSA, 24 h
[3] = tested on: MRSA (Staphylococcus aureus) BK12064; experiment: MIC, MRSA BK12064; conditions: Staphylococcus aureus, MRSA, 24 h
Escherichia coli K12 = experiment: MIC, Escherichia coli K12; conditions: Escherichia coli, K12, 24 h
Bacillus cereus 4342 = experiment: MIC, Bacillus cereus 4342; conditions: Bacillus cereus, 4342, 24 h
Escherichia coli BK12336 = experiment: MIC, Escherichia coli BK12336; conditions: Escherichia coli, BK12336, 24 h
[4] = tested on: Enterococcus sp., BK11936; experiment: MIC, Enterococcus sp., BK11936; conditions: Enterococcus, 24 h
[5] = tested on: Enterococcus sp., BK11940; experiment: MIC, Enterococcus sp., BK11940; conditions: Enterococcus, 24 h
[6] = tested on: Acinetobacter sp., BK12786; experiment: MIC, Acinetobacter sp., BK12786; conditions: Acinetobacter, 24 h
[7] = tested on: Acinetobacter sp., BK12787; experiment: MIC, Acinetobacter sp., BK12787; conditions: Acinetobacter, 24 h
[8] = tested on: Streptococcus sp., BK12233; experiment: MIC, Streptococcus sp., BK12233; conditions: Streptococcus, 24 h
[9] = tested on: Streptococcus sp., BK12235; experiment: MIC, Streptococcus sp., BK12235; conditions: Streptococcus, 24 h
[10] = tested on: Serattia marcescens BK12421; experiment: MIC, Serattia marcescens BK12421; conditions: 24 h
[11] = tested on: Serattia marcescens BK12426; experiment: MIC, Serattia marcescens BK12426; conditions: 24 h
[12] = tested on: Enterobacter cloacii BK12313; experiment: MIC, Enterobacter cloacii BK12313; conditions: Enterobacter, BK12313, 24 h
[13] = tested on: Enterobacter cloacii BK12315; experiment: MIC, Enterobacter cloacii BK12315; conditions: Enterobacter, BK12315, 24 h
[14] = tested on: Klebsiella pneumonii BK12260; experiment: MIC, Klebsiella pneumonii BK12260; conditions: Klebsiella, BK12260, 24 h
[15] = tested on: Klebsiella pneumonii BK12261; experiment: MIC, Klebsiella pneumonii BK12261; conditions: Klebsiella, BK12261, 24 h
[16] = tested on: Pseudomonas aeruginosa BK12347; experiment: MIC, Pseudomonas aeruginosa BK12347; conditions: Pseudomonas aeruginosa, BK12347, 24 h
[17] = tested on: Pseudomonas aeruginosa BK12348; experiment: MIC, Pseudomonas aeruginosa BK12348; conditions: Pseudomonas aeruginosa, BK12348, 24 h
Candida crusei 6258^mdr = experiment: microbe, parasite or virus in culture; conditions: read-out: Anti-Fungal Activity (MIC)
[18] = tested on: Staphylococcus epidermidis BK12798; experiment: MIC, Staphylococcus epidermidis BK12798; conditions: Staphylococcus epidermidis, BK12798, 24 h
[19] = tested on: Staphylococcus epidermidis BK12799; experiment: MIC, Staphylococcus epidermidis BK12799; conditions: Staphylococcus epidermidis, BK12799, 24 h
Candida albicans 90028 = experiment: Anti-fungal MIC, Candida albicans 90028; conditions: Candida albicans, 90028, read-out: Anti-Fungal Activity (MIC)
Candida albicans 90030 = experiment: Anti-fungal MIC, Candida albicans 90030; conditions: Candida albicans, 90030, read-out: Anti-Fungal Activity (MIC)
Candida dlabrata 250^mdr = experiment: Anti-fungal MIC, Candida dlabrata 250^mdr; conditions: Candida, read-out: Anti-Fungal Activity (MIC)
[20] = tested on: Candida albicans 5108^mdr; experiment: Anti-fungal MIC, Candida albicans 5108^mdr; conditions: Candida albicans, read-out: Anti-Fungal Activity (MIC)
[21] = tested on: Candida parapsilosis 22019; experiment: Anti-fungal MIC, Candida parapsilosis 22019; conditions: 22019, read-out: Anti-Fungal Activity (MIC)
[22] = tested on: Aspergillus fumigatus Rit 1; experiment: Anti-fungal MIC, Aspergillus fumigatus Rit 1; conditions: Aspergillus fumigatus, RIT1, read-out: Anti-Fungal Activity (MIC)
[23] = tested on: Aspergillus fumigatus Rit 11; experiment: Anti-fungal MIC, Aspergillus fumigatus Rit 11; conditions: Aspergillus fumigatus, RIT11, read-out: Anti-Fungal Activity (MIC)
[24] = tested on: Aspergillus fumigatus Rit 21; experiment: Anti-fungal MIC, Aspergillus fumigatus Rit 21; conditions: Aspergillus fumigatus, RIT21, read-out: Anti-Fungal Activity (MIC)
[25] = tested on: Cryptococcus neoformans CNH99; experiment: Anti-fungal MIC, Cryptococcus neoformans CNH99; conditions: Cryptococcus neoformans, CNH99, read-out: Anti-Fungal Activity (MIC)
[26] = tested on: clinical isolates of bacteria and fungus (including yeasts); experiment: General antimicrobial activity, semi-quantitative score on collection of clinical isolates; assay type: cell-based; on General antimicrobial activity: key: −: indicating no activity; +++++: indicating highest activity
Description: The growth inhibitory effect of a number of various ITC compounds were tested on large collection of clinical isolates of bacteria and fungus (including yeasts), in order to establish a systematic structure-activity relationship for the ITC compounds. […] To assess the average activity for an individual ITC compound, the semi-quantitative score was calculated for each compound based on the number of sensitive bacterial strains at concentrations of 100 and 200 μM.

[27] = Compound stability, independent experiments; assay type: physicochemical
[28] = In vivo tolerance in mice; conditions: highest dose, 50 mg/kg
virus (92TH594) = experiment: Viral proliferation in PBMC, p24 viral antigen; assay type: cell-based; conditions: PBMC
Bacillus cereus = experiment: Activity of ITC compounds against Bacillus cereus; assay type: cell-based
[29] = tested on: Staphylococcus epidermidis; experiment: Activity against Staphylococcus epidermidis (data not shown); assay type: cell-based
[30] = tested on: methicillin-resistant Staphylococcus aureus (MRSA); experiment: Activity against MRSA (data not shown); assay type: cell-based

## COc1ccc(CN=C=S)cc1 [Compound 2, reference compound]
Shigella sp., BK 12440
  MIC: 64 µg/mL (≈ 357 µM)
Shigella sp., BK 12441
  MIC: 32 to 64 µg/mL (≈ 179 to 357 µM)
[1]
  MIC: 32 to 64 µg/mL (≈ 179 to 357 µM)
M. intracellularie; M. intracellularie, read-out: MIC
  MIC: 32 µg/mL (≈ 179 µM)
M. avium; M. avium, read-out: MIC
  MIC: 32 µg/mL (≈ 179 µM)
M. scrofulaceum; M. scrofulaceum, read-out: MIC
  MIC: 32 µg/mL (≈ 179 µM)
M. cansassi; M. cansassi, read-out: MIC
  MIC: 32 µg/mL (≈ 179 µM)
M. fortuitum; M. fortuitum, read-out: MIC
  MIC: 32 µg/mL (≈ 179 µM)
M. tuberculosis W
  MIC: 8 µg/mL (≈ 44.6 µM)
M. tuberculosis H37Rv
  MIC: 32 µg/mL (≈ 179 µM)
M. tuberculosis CDC1551
  MIC: 32 µg/mL (≈ 179 µM)
M. tuberculosis P
  MIC: 8 µg/mL (≈ 44.6 µM)
[2]
  MIC: 32 to 64 µg/mL (≈ 179 to 357 µM)
[3]
  MIC: 64 µg/mL (≈ 357 µM)
Escherichia coli K12
  MIC: 64 µg/mL (≈ 357 µM)
Bacillus cereus 4342
  MIC: 32 µg/mL (≈ 179 µM)
Escherichia coli BK12336
  MIC: > 64 µg/mL
[4]
  MIC: 64 µg/mL (≈ 357 µM)
[5]
  MIC: 64 µg/mL (≈ 357 µM)
[6]
  MIC: > 64 µg/mL
[7]
  MIC: > 64 µg/mL
[8]
  MIC: 4 µg/mL (≈ 22.3 µM)
[9]
  MIC: 8 µg/mL (≈ 44.6 µM)
[10]
  MIC: > 64 µg/mL
[11]
  MIC: > 64 µg/mL
[12]
  MIC: > 64 µg/mL
[13]
  MIC: > 64 µg/mL
[14]
  MIC: > 64 µg/mL
[15]
  MIC: > 64 µg/mL
[16]
  MIC: > 64 µg/mL
[17]
  MIC: > 64 µg/mL
Candida crusei 6258^mdr
  MIC: 2 µg/mL (≈ 11.2 µM)
[18]
  MIC: 32 µg/mL (≈ 179 µM)
[19]
  MIC: 32 µg/mL (≈ 179 µM)
Candida albicans 90028
  MIC: 4 µg/mL (≈ 22.3 µM)
Candida albicans 90030
  MIC: 4 µg/mL (≈ 22.3 µM)
Candida dlabrata 250^mdr; 48 h
  MIC: 1 µg/mL (≈ 5.58 µM)
[20]
  MIC: 2 µg/mL (≈ 11.2 µM)
[21]
  MIC: 4 µg/mL (≈ 22.3 µM)
[22]
  MIC: 8 µg/mL (≈ 44.6 µM)
[23]
  MIC: 8 µg/mL (≈ 44.6 µM)
[24]
  MIC: 8 µg/mL (≈ 44.6 µM)
[25]
  MIC: < 1 µg/mL

## S=C=NCc1ccncc1 [Compound 29]
[26]; semi-quantitative score from number of sensitive bacterial strains at 100 and 200 μM, deduced from number of sensitive bacterial species and average MIC
  General antimicrobial activity: −
[27]
  stability of the compound: instability of the compound

## S=C=NCc1cccnc1 [Compound 30]
M. intracellularie
  MIC: 32 µg/mL (≈ 213 µM)
M. avium
  MIC: 32 µg/mL (≈ 213 µM)
M. scrofulaceum
  MIC: 32 µg/mL (≈ 213 µM)
M. cansassi
  MIC: 32 µg/mL (≈ 213 µM)
M. fortuitum
  MIC: 16 µg/mL (≈ 107 µM)
M. tuberculosis W
  MIC: 4 µg/mL (≈ 26.6 µM)
M. tuberculosis H37Rv
  MIC: 32 µg/mL (≈ 213 µM)
M. tuberculosis CDC1551
  MIC: 16 µg/mL (≈ 107 µM)
M. tuberculosis P
  MIC: 4 µg/mL (≈ 26.6 µM)
[28]
  toxicity in treated mice: no toxicity was observed
Virus (92TH594); compound 2.5 μg/ml, added to the cells after viral infection
  P24 values: 643 pg/mL
Virus (92TH594); compound 2.5 μg/ml, added to the cells before viral infection
  P24 values: 320 pg/mL
Virus (92TH594); compound 10 μg/ml, added to the cells after viral infection
  P24 values: 155 pg/mL
Virus (92TH594); compound 10 μg/ml, added to the cells before viral infection
  P24 values: 0 pg/mL
Bacillus cereus
  activity against Bacillus cereus (in words): only moderately active
Candida crusei 6258^mdr
  MIC: 0.5 µg/mL (≈ 3.33 µM)
Candida albicans 90028
  MIC: 2 µg/mL (≈ 13.3 µM)
Candida albicans 90030
  MIC: 1 µg/mL (≈ 6.66 µM)
Candida dlabrata 250^mdr; 48 h
  MIC: 2 µg/mL (≈ 13.3 µM)
[20]
  MIC: 0.5 µg/mL (≈ 3.33 µM)
[21]
  MIC: 1 µg/mL (≈ 6.66 µM)
[22]
  MIC: 4 µg/mL (≈ 26.6 µM)
[23]
  MIC: 4 µg/mL (≈ 26.6 µM)
[24]
  MIC: 4 µg/mL (≈ 26.6 µM)
[25]
  MIC: 1 µg/mL (≈ 6.66 µM)

## S=C=NCc1ccc2ccc3cccc4ccc1c2c34 [Compound 33]
[26]; Table 1 screen
  antimicrobial / growth-inhibitory activity (in words): poor growth-inhibitory activity
Bacillus cereus
  activity against Bacillus cereus (in words): very efficient
[29]
  activity against Staphylococcus epidermidis (in words): very efficient
[30]
  activity against MRSA (in words): very efficient
Candida crusei 6258^mdr
  MIC: > 64 µg/mL
Candida albicans 90028
  MIC: 32 µg/mL (≈ 117 µM)
Candida albicans 90030
  MIC: 8 µg/mL (≈ 29.3 µM)
Candida dlabrata 250^mdr
  MIC: 64 µg/mL (≈ 234 µM)
[20]
  MIC: > 64 µg/mL
[21]
  MIC: 32 µg/mL (≈ 117 µM)
[22]
  MIC: > 64 µg/mL
[23]
  MIC: > 64 µg/mL
[24]
  MIC: > 64 µg/mL
[25]
  MIC: 4 µg/mL (≈ 14.6 µM)
